Tests used:
[1] = biological target: human TYK2 (JH2domain-pseudokinase) (Homo sapiens (Human), UniProt P29597); experiment: TYK2 JH2 Domain Binding Assay (KINOMEscan); conditions: 11-point 3-fold dilution, top concentration 30,000 nM, duplicate; read-out: hTYK2_JH2_Binding (Kd; nM)
Outline: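 KINOMEscan competition binding: HEK293-expressed NFkB-fused TYK2 JH2 (G556–D888), DNA-tagged, against immobilized ligand beads, 1 h shaking at room temperature, 0.9% DMSO. Bound kinase quantified by qPCR.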

[2] = test system: IL-12 induced STAT4 phosphorlyation mediated by TYK2/JAK2; experiment: IL-12 Induced pSTAT4 in Human PBMC; format: cell-based; conditions: 1.7 ng/mL IL-12 for 30 minutes
Outline: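 pSTAT4 and total STAT4 quantified by MSD in lysates of cryopreserved human PBMC after 30-minute stimulation with 1.7 ng/mL IL-12 (final). Compound was added 1 hr beforehand at 37° C, 0.1% DMSO final.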

human TYK2 (JH2domain-pseudokinase), sequence (P29597 556-888): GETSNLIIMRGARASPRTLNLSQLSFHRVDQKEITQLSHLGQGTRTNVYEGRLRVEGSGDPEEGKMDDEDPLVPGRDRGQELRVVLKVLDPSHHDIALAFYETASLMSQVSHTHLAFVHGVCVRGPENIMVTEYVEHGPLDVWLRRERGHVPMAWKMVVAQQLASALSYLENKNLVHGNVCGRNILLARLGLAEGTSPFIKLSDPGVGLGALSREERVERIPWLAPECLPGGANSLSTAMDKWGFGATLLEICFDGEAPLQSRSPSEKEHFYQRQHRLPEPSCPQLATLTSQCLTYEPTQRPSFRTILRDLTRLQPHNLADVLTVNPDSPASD

O=C(NC1CCC1(F)F)c1cnn2c3c(c(Nc4cccn([C@H]5[C@@H]6COC[C@@H]65)c4=O)nc12)OCCN3 (stereo partly shown) [Compound I-768]
Kd [1]: < 0.2 nM | IC50 [2]: < 0.1 µM

O=C(NC1CCC1(F)F)c1cnn2c3c(c(-c4cn(C5COC5)c5ncccc45)nc12)OCCN3 (stereo not shown) [Compound I-771, N-(2,2-Difluorocyclobutyl)-5-(1-(oxetan-3-yl)-1H-pyrrolo[2,3-b]pyridin-3-yl)-2,3-dihydro-1H-pyrazolo[5′,1′:2,3]pyrimido[5,4-b][1,4]oxazine-7-carboxamide]
Kd [1]: < 0.2 nM | IC50 ([2]; 0.5 h): < 0.1 µM

CNc1cc(-c2cnc3n([C@H]4COC[C@@H]4O)cccc2-3)nc2c(C(=O)NC3CC3)cnn12 [Compound I-816]
Kd [1]: < 0.2 nM | IC50 [2]: < 0.1 µM

CNc1cc(-c2cnc3n([C@@H]4COC[C@H]4O)cccc2-3)nc2c(C(=O)NC3CC3)cnn12 [Compound I-817]
Kd [1]: < 0.2 nM | IC50 [2]: < 0.1 µM

CNc1cc(Nc2cccn([C@H]3[C@@H]4COC[C@@H]43)c2=O)nc2c(C(=O)NC3CCC3)cnn12 [Compound I-142]
Kd [1]: < 0.2 nM | IC50 [2]: < 0.1 µM

CNc1cc(Nc2cccn(-c3ccccn3)c2=O)nc2c(C(N)=O)cnn12 [Compound I-119]
Kd [1]: < 0.2 nM | IC50 [2]: 0.1 to 0.5 µM

CNc1cc(Nc2cccn(C3COC3)c2=O)nc2c(C(=O)N[C@@H]3CC[C@@H]3F)cnn12 [Compound I-162]
Kd [1]: < 0.2 nM | IC50 [2]: < 0.1 µM

CNc1cc(-c2cn([C@H]3[C@@H]4COC[C@@H]43)c3ncccc23)nc2c(C(=O)N[C@@H]3CC[C@H]3O)cnn12 [Compound I-960]
Kd [1]: < 0.2 nM | IC50 [2]: 0.1 to 0.5 µM

CNc1cc(-c2cn(C3COC3)c3ncccc23)nc2c(C(=O)N[C@H]3CC[C@@H]3F)cnn12 [Compound I-508]
Kd [1]: < 0.2 nM | IC50 [2]: < 0.1 µM

CNc1ccc(-c2cc(NC)n3ncc(C(=O)N[C@@H]4C[C@@H]4F)c3n2)n2ccnc12 [Compound I-479]
Kd [1]: < 0.2 nM | IC50 [2]: < 0.1 µM

CNc1cc(Nc2cccn(C3COC3)c2=O)nc2c(C(=O)NC3CC[C@H]3F)cnn12 (stereo partly shown) [Compound I-160]
Kd [1]: < 0.2 nM | IC50 [2]: < 0.1 µM

CNc1cc(-c2cn([C@H]3C[C@@H](COC)C3)c3ncccc23)nc2c(C(=O)N[C@H]3CC[C@@H]3OC)cnn12 [Compound I-933]
Kd [1]: < 0.2 nM | IC50 [2]: < 0.1 µM

CNc1cc(-c2cnc3n(C4CCOCC4)cccc2-3)nc2c(C(=O)NC3CC[C@@H]3OC)cnn12 (stereo in doubt) [Compound I-985, N-(2-methoxycyclobutyl)-7-(methylamino)-5-(7-(tetrahydro-2H-pyran-4-yl)-7H-pyrrolo[2,3-b]pyridin-3-yl)pyrazolo[1,5-a]pyrimidine-3-carboxamide]
Kd [1]: < 0.2 nM | IC50 ([2]; 0.5 h): < 0.1 µM

CNc1cc(Nc2cccn(C3COC3)c2=O)nc2c(C(=O)NC3CC[C@@H]3F)cnn12 (stereo partly shown) [Compound I-163]
Kd [1]: < 0.2 nM | IC50 [2]: < 0.1 µM

CC(C)n1cc(-c2nc3c(C(=O)N[C@H]4CC[C@H]4O)cnn3c3c2OCCN3)c2cccnc21 [Compound I-754]
Kd [1]: < 0.2 nM | IC50 [2]: < 0.1 µM

CO[C@@H]1CC[C@H]1NC(=O)c1cnn2c(N)cc(Nc3cccn(-c4ccccn4)c3=O)nc12 [Compound I-247]
Kd [1]: > 10 nM | IC50 [2]: 0.1 to 0.5 µM

CNc1cc(Nc2cccn([C@H]3[C@@H]4COC[C@@H]43)c2=O)nc2c(C(=O)N[C@H]3CCC3(F)F)cnn12 [Compound I-307]
Kd [1]: < 0.2 nM | IC50 [2]: < 0.1 µM

CNc1cc(-c2cnc3n(C4CCOCC4)cccc2-3)nc2c(C(=O)N[C@H]3CC[C@@H]3OC)cnn12 [Compound I-1014]
Kd [1]: < 0.2 nM | IC50 [2]: < 0.1 µM

CNc1cc(-c2cn([C@H]3C[C@@H](O)C3)c3ncccc23)nc2c(C(=O)NC3CC3)cnn12 [Compound I-495]
Kd [1]: < 0.2 nM | IC50 [2]: < 0.1 µM

CNc1cc(-c2cn([C@H]3CCCOC3)c3ncccc23)nc2c(C(=O)N[C@@H]3CC[C@@H]3O)cnn12 [Compound I-14, N-((1R,2S)-2-Hydroxycyclobutyl)-7-(methylamino)-5-(1-((S)-tetrahydro-2H-pyran-3-yl)-1H-pyrrolo[2,3-b]pyridin-3-yl)pyrazolo[1,5-a]pyrimidine-3-carboxamide]
Kd [1]: < 0.2 nM | IC50 ([2]; 0.5 h): < 0.1 µM

O=C(NC1CC[C@@H]1F)c1cnn2c3c(c(-c4cn(C5COC5)c5ncccc45)nc12)OCCN3 (stereo partly shown) [Compound I-774]
Kd [1]: < 0.2 nM | IC50 [2]: < 0.1 µM

CNc1cc(Nc2cccn([C@H]3C[C@@H](OC)C3)c2=O)nc2c(C(=O)NC3CC3)cnn12 [Compound I-5, N-Cyclopropyl-5-((1-((1s,3s)-3-methoxycyclobutyl)-2-oxo-1,2-dihydropyridin-3-yl)amino)-7-(methylamino)pyrazolo[1,5-a]pyrimidine-3-carboxamide]
Kd [1]: < 0.2 nM

CNc1ccc(-c2cc(NC)n3ncc(C(=O)NC4CCC4(F)F)c3n2)n2ccnc12 (stereo not shown) [Compound I-491]
Kd [1]: < 0.2 nM

CNc1cc(Nc2ccc(F)n(-c3ccccn3)c2=O)nc2c(C(=O)N[C@@H]3C[C@@H]3F)cnn12 [Compound I-474, 5-((6-Fluoro-2-oxo-2H-[1,2′-bipyridin]-3-yl)amino)-N-((1R,2S)-2-fluorocyclopropyl)-7-(methylamino)pyrazolo[1,5-a]pyrimidine-3-carboxamide]
Kd [1]: 1 to 10 nM

CNc1cc(Nc2cccn(C(C)C)c2=O)nc2c(C(=O)N[C@H]3C[C@@H]3OC)cnn12 [Compound I-30, 5-((1-Isopropyl-2-oxo-1,2-dihydropyridin-3-yl)amino)-N-((1S,2S)-2-methoxycyclopropyl)-7-(methylamino)pyrazolo[1,5-a]pyrimidine-3-carboxamide]
Kd [1]: 0.2 to 1 nM

CNc1cc(-c2cn(CCN3CCOCC3)c3ncccc23)nc2c(C(=O)N[C@@H]3CC[C@H]3OC)cnn12 [Compound I-55, N-((1R,2R)-2-Methoxycyclobutyl)-7-(methylamino)-5-(1-(2-morpholinoethyl)-1H-pyrrolo[2,3-b]pyridin-3-yl)pyrazolo[1,5-a]pyrimidine-3-carboxamide]
Kd [1]: 0.2 to 1 nM

CNc1cc(Nc2cccn([C@H]3C[C@@H]3F)c2=O)nc2c(C(=O)N[C@@H]3CC[C@H](O)C3)cnn12 [Compound I-44, 5-((1-((1S,2S)-2-Fluorocyclopropyl)-2-oxo-1,2-dihydropyridin-3-yl)amino)-N-((1R,3S)-3-hydroxycyclopentyl)-7-(methylamino)pyrazolo[1,5-a]pyrimidine-3-carboxamide]
Kd [1]: 0.2 to 1 nM

O=C(NC1CC1)c1cnn2c3c(c(Nc4cccc5ocnc45)nc12)OCCN3 [Compound I-749]
Kd [1]: < 0.2 nM

O=C(N[C@H]1CCC1(F)F)c1cnn2c3c(c(Nc4cccn([C@H]5[C@@H]6COC[C@@H]65)c4=O)nc12)OCCN3 [Compound I-770]
Kd [1]: > 10 nM

CC(C)n1cccc(Nc2nc3c(C(=O)N[C@@H]4CCC4(F)F)cnn3c3c2OCCN3)c1=O [Compound I-767]
Kd [1]: < 0.2 nM

CNc1cc(Nc2cccn(C(C)C)c2=O)nc2c(C(=O)N[C@@H]3C[C@H]3OC)cnn12 [Compound I-29, 5-((1-Isopropyl-2-oxo-1,2-dihydropyridin-3-yl)amino)-N-((1R,2R)-2-methoxycyclopropyl)-7-(methylamino)pyrazolo[1,5-a]pyrimidine-3-carboxamide]
Kd [1]: 0.2 to 1 nM

O=C(N[C@H]1CCC1(F)F)c1cnn2c3c(c(-c4cn(C5COC5)c5ncccc45)nc12)OCCN3 [Compound I-773]
Kd [1]: < 0.2 nM

CNc1cc(Nc2cccn(-c3ccc(C)nc3)c2=O)nc2c(C(=O)N[C@H]3C[C@@H]3OC)cnn12 [Compound I-35, N-((1S,2S)-2-Methoxycyclopropyl)-5-((6′-methyl-2-oxo-2H-[1,3′-bipyridin]-3-yl)amino)-7-(methylamino)pyrazolo[1,5-a]pyrimidine-3-carboxamide]
Kd [1]: < 0.2 nM

CNc1cc(Nc2cccn(C3CC(F)(F)C3)c2=O)nc2c(C(=O)N[C@H]3CCC[C@]3(C)O)cnn12 [Compound I-90, 5-((1-(3,3-Difluorocyclobutyl)-2-oxo-1,2-dihydropyridin-3-yl)amino)-N-((1S,2S)-2-hydroxy-2-methylcyclopentyl)-7-(methylamino)pyrazolo[1,5-a]pyrimidine-3-carboxamide]
Kd [1]: > 10 nM

CNc1cc(Nc2cccn(-c3ncco3)c2=O)nc2c(C(=O)NC3CC[C@@H](OC)C3)cnn12 (mixture of isomers) [Compound I-71, N-((trans-1,3)-3-Methoxycyclopentyl)-7-(methylamino)-5-((1-(oxazol-2-yl)-2-oxo-1,2-dihydropyridin-3-yl)amino)pyrazolo[1,5-a]pyrimidine-3-carboxamide]
Kd [1]: 0.2 to 1 nM

CNc1cc(-c2cn([C@@H]3COC[C@H]3OC)c3ncccc23)nc2c(C(=O)N[C@@H]3C[C@@H]3F)cnn12 [Compound I-503]
Kd [1]: < 0.2 nM

CNc1cc(-c2cn([C@H]3COC[C@@H]3O)c3ncccc23)nc2c(C(=O)NC3CC3)cnn12 [Compound I-496]
Kd [1]: < 0.2 nM

CNc1cc(-c2cn([C@H]3CCCOC3)c3ncccc23)nc2c(C(=O)N[C@H]3COC[C@H]3O)cnn12 [Compound I-60, N-((3S,4S)-4-Hydroxytetrahydrofuran-3-yl)-7-(methylamino)-5-(1-((S)-tetrahydro-2H-pyran-3-yl)-1H-pyrrolo[2,3-b]pyridin-3-yl)pyrazolo[1,5-a]pyrimidine-3-carboxamide]
Kd [1]: < 0.2 nM

CNc1cc(Nc2cccn(C3CC(F)(F)C3)c2=O)nc2c(C(=O)N[C@H]3CCC[C@](C)(O)C3)cnn12 [Compound I-93, 5-((1-(3,3-Difluorocyclobutyl)-2-oxo-1,2-dihydropyridin-3-yl)amino)-N-((1S,3S)-3-hydroxy-3-methylcyclohexyl)-7-(methylamino)pyrazolo[1,5-a]pyrimidine-3-carboxamide]
Kd [1]: 0.2 to 1 nM

CNc1cc(-c2cnc3n(CC(=O)N4CC5(COC5)C4)cccc2-3)nc2c(C(=O)N[C@@H]3CC[C@H]3OC)cnn12 [Compound I-1013]
Kd [1]: < 0.2 nM
